From patent US8592581B2, “Trisubstituted purine derivatives” (Cyclacel Limited, priority 2007, dated 2013)

Columns and labels:
[1] = tested on: Mcl-1; test: Mcl-1 downregulation in H460 cells by Western blotting; type: cell-based
Procedure: The media was removed and the adherent cells washed with 5 ml PBS. […] Proteins were transferred to nitrocellulose membranes (Schleicher & Schuell, Dassel, Germany) using wet electrophoretic transfer. Membranes were stained with Ponceau S to confirm equal loading before blocking in 5% nonfat milk in PBS with 0.05% Tween 20 (PBSTM) for 2 hours. Membranes were incubated overnight at 4° C. with primary antibody (rabbit polyclonal antibody to Mcl-1, Santa Cruz), diluted 1:1000 in PBSTM. Membranes were washed 2×5 minute followed by 2×10 minute in PBS and 0.05% Tween 20 (PBST) and incubated for 1 hour in PBSTM containing horseradish peroxidase-conjugated secondary antibody. Membranes were washed as before and incubated with enhanced chemiluminescence solution (Amersham) and exposed to X-ray film (Amersham).
In a second experiment the effect of additional compounds on Mcl-1 levels was investigated.

[2] = tested on: H358; test: Alamar blue cytotoxicity assay H358; type: cell-based; conditions: Homo sapiens, NCI-H358; 72 hours; read-out: cellular cytotoxicity IC50 H358
Procedure: (§1) In order to determine the cellular potency of the compounds, the cytotoxicity of each compound was determined against a range of cell lines. Standard cytotoxicity methods were performed as follows: cells were seeded in 96-well plates appropriately for their doubling time (2-5000 cells per well) in RPMI or DMEM media containing 10% FCS and incubated overnight at 37° C., 5% CO2. The media was removed and 100 μl fresh media containing increasing concentrations of appropriate compound was added and the cells incubated for 72 hours at 37° C., 5% CO2. A 10% stock of alamar blue (Roche, Lewes, United Kingdom) was prepared in medium and 100 μl added to the cells which were incubated for 2 hours. Absorbance was measured on the Wallac Victor 2 1420 multi-label counter at 544-595 nm.

[3] = tested on: MCF7; test: Alamar blue cytotoxicity assay MCF7; type: cell-based; conditions: Homo sapiens, 72 hours, read-out: cellular cytotoxicity IC50 MCF7
Procedure: as §1

[4] = target: CYP3A4 (Homo sapiens (Human), UniProt P08684); test: Cytochrome P450 substrate identification (Bactosomes) CYP3A4; type: in vitro ADME
Procedure: (§2) cDNA expressed human CYP450 enzyme preparations co-expressed with human NADPH cytochrome P450 reductase (Bactosomes™) were supplied by Cypex Ltd. Bactosomes™ (final P450 concentration CYP1A2 100 pmol/mL, CYP2C8 50 pmol/mL, CYP2C9 25 pmol/mL, CYP2C19 100 pmol/mL, CYP2D6 50 pmol/mL and CYP3A4 25 pmol/mL), 0.1M phosphate buffer pH7.4 and test compound (final substrate concentration=5 μM; final DMSO concentration=0.25%) were pre-incubated at 37° C. prior to the addition of NADPH (final concentration=1 mM) to initiate the reaction. Incubations were also performed using control bactosomes (no P450 enzymes present) to reveal any non-enzymatic degradation. The final incubation volume was 25 μL. Compounds known to be metabolised specifically by each CYP450 isoform were used as control compounds.
(§3) Each compound was incubated singly for 0, 5, 15, 30 and 45 min with each CYP isoform. The reactions were stopped by the addition of 50 μL methanol containing internal standard at the appropriate time points. The incubation plates were centrifuged at 2500 rpm for 20 min at 4° C. to precipitate the protein. Following protein precipitation, the sample supernatants were combined in cassettes of up to four compounds and analysed using generic LC-MS/MS conditions.
(§4) The In peak area ratio (which has been corrected for any loss in the incubations with the control bactosomes) was plotted against time and the gradient of the line determined.
(§5) The elimination rate constant (k)=(−gradient)

[5] = target: CYP1A (Homo sapiens, UniProt P05177); test: CYP1A inhibition, human liver microsomes, ethoxyresorufin; type: in vitro ADME; conditions: human liver microsomes, probe ethoxyresorufin (0.5 μM), read-out: IC50 (μM) CYP1A
Procedure: Six test compound concentrations (0.05, 0.25, 0.5, 2.5, 5, 25 μM in DMSO; final DMSO concentration=0.35%) were incubated with human liver microsomes (0.25 mg/mL) and NADPH (1 mM) in the presence of the probe substrate ethoxyresorufin (0.5 μM) for 5 min at 37° C. The selective CYP1A inhibitor, alpha-naphthoflavone, was screened alongside the test compounds as a positive control.
For the CYP1A incubations, the reactions were terminated by the addition of methanol, and the formation of the metabolite, resorufin, was monitored by fluorescence (excitation wavelength=535 nm, emission wavelength=595 nm). For the CYP2C9, CYP2C19, CYP2D6, and CYP3A4 incubations, the reactions were terminated by the addition of methanol containing internal standard. The samples were then centrifuged, and the supernatants were combined, for the simultaneous analysis of 4-hydroxytolbutamide, 4-hydroxymephenyloin, dextrorphan, and 1-hydroxymidazolam plus internal standard by LC-MS/MS using generic LC-MS/MS conditions. Formic acid in deionised water (final concentration=0.1%) was added to the final sample prior to analysis.

[6] = tested on: various cell lines; test: Alamar blue cytotoxicity assay, average over the cell lines of Table 8; type: cell-based
Procedure: as §1

[7] = target: CYP2D6 (Homo sapiens (Human), UniProt P10635); test: Cytochrome P450 substrate identification (Bactosomes) CYP2D6; type: in vitro ADME; conditions: pH 7.4, 5 μM test compound, up to 45 min, read-out: half life in the presence of CYP2D6
Procedure: as §2, §3, §4, §5

[8] = tested on: LoVo; test: Alamar blue cytotoxicity assay LoVo; type: cell-based; conditions: Homo sapiens, 72 hours, read-out: cellular cytotoxicity IC50 LoVo
Procedure: as §1

[9] = tested on: A549; test: Alamar blue cytotoxicity assay A549; type: cell-based; conditions: Homo sapiens, 72 hours, read-out: cellular cytotoxicity IC50 A549
Procedure: as §1

[10] = target: CYP2C19 (Homo sapiens (Human), UniProt P33261); test: Cytochrome P450 substrate identification (Bactosomes) CYP2C19; type: in vitro ADME; conditions: pH 7.4, 5 μM test compound, up to 45 min, read-out: half life in the presence of CYP2C19
Procedure: as §2, §3, §4, §5

[11] = target: CYP2C9 (Homo sapiens (Human), UniProt P11712); test: Cytochrome P450 substrate identification (Bactosomes) CYP2C9; type: in vitro ADME; conditions: pH 7.4, 5 μM test compound, up to 45 min, read-out: half life in the presence of CYP2C9
Procedure: as §2, §3, §4, §5

[12] = tested on: MESSA-Dx5; test: Alamar blue cytotoxicity assay MESSA-Dx5; type: cell-based; conditions: Homo sapiens, MES-SA/Dx5; 72 hours; read-out: cellular cytotoxicity IC50 MESSA-Dx5
Procedure: as §1

Sequence of CYP3A4 (P08684 whole entry): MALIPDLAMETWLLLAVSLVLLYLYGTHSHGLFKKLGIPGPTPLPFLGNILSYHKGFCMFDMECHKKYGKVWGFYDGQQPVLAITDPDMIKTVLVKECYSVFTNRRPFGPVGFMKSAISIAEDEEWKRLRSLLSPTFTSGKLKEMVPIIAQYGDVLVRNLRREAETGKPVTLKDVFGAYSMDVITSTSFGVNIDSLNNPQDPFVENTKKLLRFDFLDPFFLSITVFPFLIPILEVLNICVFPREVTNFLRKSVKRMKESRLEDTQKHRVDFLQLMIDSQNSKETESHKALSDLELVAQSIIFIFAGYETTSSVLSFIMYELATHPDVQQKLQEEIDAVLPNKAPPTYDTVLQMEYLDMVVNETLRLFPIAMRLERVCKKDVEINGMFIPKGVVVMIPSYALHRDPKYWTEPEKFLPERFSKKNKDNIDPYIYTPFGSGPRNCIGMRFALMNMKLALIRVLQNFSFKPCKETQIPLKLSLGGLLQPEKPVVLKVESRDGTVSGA
Sequence of CYP2C9 (P11712 whole entry): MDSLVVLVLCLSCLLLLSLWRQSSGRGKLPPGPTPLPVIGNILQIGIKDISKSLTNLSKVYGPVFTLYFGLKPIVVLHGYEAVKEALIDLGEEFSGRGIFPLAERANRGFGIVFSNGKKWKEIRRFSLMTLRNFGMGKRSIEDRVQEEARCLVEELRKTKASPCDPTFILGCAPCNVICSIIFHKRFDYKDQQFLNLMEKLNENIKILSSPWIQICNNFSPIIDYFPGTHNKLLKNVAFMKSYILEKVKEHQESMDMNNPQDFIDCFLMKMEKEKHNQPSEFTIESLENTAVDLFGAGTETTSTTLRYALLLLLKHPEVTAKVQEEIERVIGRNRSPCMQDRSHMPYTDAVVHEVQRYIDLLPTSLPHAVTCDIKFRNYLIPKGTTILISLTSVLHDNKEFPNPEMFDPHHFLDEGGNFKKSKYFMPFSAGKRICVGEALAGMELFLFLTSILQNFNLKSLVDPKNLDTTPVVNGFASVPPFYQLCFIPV
Sequence of CYP2C19 (P33261 whole entry): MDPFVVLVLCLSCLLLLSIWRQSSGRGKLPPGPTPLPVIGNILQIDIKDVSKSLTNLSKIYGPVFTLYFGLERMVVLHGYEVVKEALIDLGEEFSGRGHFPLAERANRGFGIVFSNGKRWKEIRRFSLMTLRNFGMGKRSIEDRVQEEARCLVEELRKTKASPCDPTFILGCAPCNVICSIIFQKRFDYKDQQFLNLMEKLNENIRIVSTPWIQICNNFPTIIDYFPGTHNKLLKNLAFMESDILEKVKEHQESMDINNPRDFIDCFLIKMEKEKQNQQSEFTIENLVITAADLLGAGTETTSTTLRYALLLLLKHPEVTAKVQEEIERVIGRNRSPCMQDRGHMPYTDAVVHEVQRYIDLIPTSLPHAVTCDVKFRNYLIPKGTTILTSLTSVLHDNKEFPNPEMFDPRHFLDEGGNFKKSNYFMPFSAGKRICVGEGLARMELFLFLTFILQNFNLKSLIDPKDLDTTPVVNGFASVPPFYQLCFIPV
Sequence of CYP2D6 (P10635 whole entry): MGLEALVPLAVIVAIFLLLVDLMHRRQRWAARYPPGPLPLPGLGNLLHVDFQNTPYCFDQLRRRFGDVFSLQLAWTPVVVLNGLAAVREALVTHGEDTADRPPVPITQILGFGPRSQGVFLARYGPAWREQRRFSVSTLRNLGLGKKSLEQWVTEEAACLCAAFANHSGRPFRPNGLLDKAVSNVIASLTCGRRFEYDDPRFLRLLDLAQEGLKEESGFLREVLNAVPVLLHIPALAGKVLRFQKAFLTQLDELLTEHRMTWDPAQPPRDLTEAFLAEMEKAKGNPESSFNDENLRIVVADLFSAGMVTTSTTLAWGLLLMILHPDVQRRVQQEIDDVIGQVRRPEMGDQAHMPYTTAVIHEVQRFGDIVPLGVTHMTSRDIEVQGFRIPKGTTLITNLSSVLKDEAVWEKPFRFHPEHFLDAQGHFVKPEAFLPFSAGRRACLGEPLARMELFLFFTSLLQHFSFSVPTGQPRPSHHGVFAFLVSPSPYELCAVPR
Sequence of CYP1A (P05177 2-516 limits assumed): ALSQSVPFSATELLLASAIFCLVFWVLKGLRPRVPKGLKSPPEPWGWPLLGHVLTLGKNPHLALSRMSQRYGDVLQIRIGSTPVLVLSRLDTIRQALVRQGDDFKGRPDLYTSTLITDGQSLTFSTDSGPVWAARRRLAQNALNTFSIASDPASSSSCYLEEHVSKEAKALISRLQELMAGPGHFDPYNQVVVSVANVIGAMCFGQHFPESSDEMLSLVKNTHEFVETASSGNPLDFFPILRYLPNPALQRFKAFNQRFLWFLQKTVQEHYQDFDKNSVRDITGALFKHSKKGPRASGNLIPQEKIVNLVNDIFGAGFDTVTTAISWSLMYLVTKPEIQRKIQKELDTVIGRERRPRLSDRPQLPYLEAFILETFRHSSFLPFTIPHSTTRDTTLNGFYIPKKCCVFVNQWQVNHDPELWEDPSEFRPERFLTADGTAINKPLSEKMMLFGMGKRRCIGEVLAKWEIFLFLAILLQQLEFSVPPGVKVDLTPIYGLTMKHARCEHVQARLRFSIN

For `CC[C@H](Nc1nc(NCc2cnc(C)cc2C)c2ncn(C(C)C)c2n1)[C@@H](C)O` [Compound [1]], the “downregulating the levels of Mcl-1 (in words)” value ([1]; H460 cells, 0.5, 1.5, 4.5 and 13.5 μM, 5 hrs) was “most effective compound from this group”, the “concentration at which significant effects on Mcl-1 levels are observed” value ([1]; H460 cells, 24 hr) was 1.5 µM and the IC50 [2] was 180 nM. The IC50 [3] was 260 nM, the “substrate of CYP3A4 (in words)” value ([4]; Bactosomes system) was “neither a substrate of nor inhibitor of CYP3A4” and the half-life at 5 μM ([4]; human, pH 7.4, Bactosomes, 5 μM test compound, up to 45 min, read-out: half life in the presence of CYP3A4) was over 45 min. For the same compound, the IC50 at 5 min [5] was over 25 µM, the “cytotoxic potency compared with prior art compounds (in words)” value ([6]; 21 cell lines, versus [A1], [A2] or [A3]) was “significantly more potent” and the IC50 ([6]; average over the cell lines of Table 8, read-out: cellular cytotoxicity IC50 Ave) was 350 nM. It also gave a half-life at 5 μM [7] of over 45 min, an IC50 [8] of 700 nM and an IC50 [9] of 160 nM. The half-life at 5 μM [10] was over 45 min, the half-life at 5 μM [11] was over 45 min and the IC50 [12] was 1210 nM.
